Data as given in patent publication US10093656B2, “Fused-ring or tricyclic aryl pyrimidine compound used as kinase inhibitor” (NANJING SANHOME PHARMACEUTICAL CO., LTD, priority 2015, dated 2018).

Legend:
EGFR T790M/L858R = target: T1, EGFR T790M/L858R (Homo sapiens, UniProt P00533, L858R/T790M); test: EGFR T790M/L858R enzyme HTRF inhibition assay; type: biochemical; details: 20 μM ATP, read-out: EGFR L858R/T79M IC50
T1 construct: purchased Life technology (Madison, Wis.)
How it was run: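 HTRF assay with 0.04 nM enzyme, 1 μM biotin-TK1 peptide and 20 μM ATP, 60 min at 23° C. Product detected with Eu-anti-TK1 antibody/XL665 (60 min at 23° C); compound at 10 doses, 300 nM to 0.015 nM final. IC50 from four-parameter fit.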

A431 cells EGFR WT = test: A431 cell viability assay (Cell Titer-Glo, 6 days); type: cell-based, human; details: for IC50: Homo sapiens, A-431, 144 h, A431 cells, 6 days; for A431:NCI-H1975 (ratio): ratio of cell IC50 A431 to NCI-H1975
How it was run: (§1)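 A431 (EGFR WT) and NCI-H1975 (EGFR L858R/T790M) cells treated for 6 days at 37° C, in duplicate with 10 three-fold doses from 10 μM to 0.508 nM final. Viability read as CellTiter-Glo luminescence. IC50 from four-parameter fit of % inhibition.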

INSR = target: T2, INSR (Homo sapiens, UniProt P06213); test: INSR enzyme HTRF inhibition assay; type: biochemical; details: 35 μM ATP, read-out: INSR_IC50
T2 construct: purchased Life technology (Madison, Wis.)
T2 sequence (P06213 28-1382): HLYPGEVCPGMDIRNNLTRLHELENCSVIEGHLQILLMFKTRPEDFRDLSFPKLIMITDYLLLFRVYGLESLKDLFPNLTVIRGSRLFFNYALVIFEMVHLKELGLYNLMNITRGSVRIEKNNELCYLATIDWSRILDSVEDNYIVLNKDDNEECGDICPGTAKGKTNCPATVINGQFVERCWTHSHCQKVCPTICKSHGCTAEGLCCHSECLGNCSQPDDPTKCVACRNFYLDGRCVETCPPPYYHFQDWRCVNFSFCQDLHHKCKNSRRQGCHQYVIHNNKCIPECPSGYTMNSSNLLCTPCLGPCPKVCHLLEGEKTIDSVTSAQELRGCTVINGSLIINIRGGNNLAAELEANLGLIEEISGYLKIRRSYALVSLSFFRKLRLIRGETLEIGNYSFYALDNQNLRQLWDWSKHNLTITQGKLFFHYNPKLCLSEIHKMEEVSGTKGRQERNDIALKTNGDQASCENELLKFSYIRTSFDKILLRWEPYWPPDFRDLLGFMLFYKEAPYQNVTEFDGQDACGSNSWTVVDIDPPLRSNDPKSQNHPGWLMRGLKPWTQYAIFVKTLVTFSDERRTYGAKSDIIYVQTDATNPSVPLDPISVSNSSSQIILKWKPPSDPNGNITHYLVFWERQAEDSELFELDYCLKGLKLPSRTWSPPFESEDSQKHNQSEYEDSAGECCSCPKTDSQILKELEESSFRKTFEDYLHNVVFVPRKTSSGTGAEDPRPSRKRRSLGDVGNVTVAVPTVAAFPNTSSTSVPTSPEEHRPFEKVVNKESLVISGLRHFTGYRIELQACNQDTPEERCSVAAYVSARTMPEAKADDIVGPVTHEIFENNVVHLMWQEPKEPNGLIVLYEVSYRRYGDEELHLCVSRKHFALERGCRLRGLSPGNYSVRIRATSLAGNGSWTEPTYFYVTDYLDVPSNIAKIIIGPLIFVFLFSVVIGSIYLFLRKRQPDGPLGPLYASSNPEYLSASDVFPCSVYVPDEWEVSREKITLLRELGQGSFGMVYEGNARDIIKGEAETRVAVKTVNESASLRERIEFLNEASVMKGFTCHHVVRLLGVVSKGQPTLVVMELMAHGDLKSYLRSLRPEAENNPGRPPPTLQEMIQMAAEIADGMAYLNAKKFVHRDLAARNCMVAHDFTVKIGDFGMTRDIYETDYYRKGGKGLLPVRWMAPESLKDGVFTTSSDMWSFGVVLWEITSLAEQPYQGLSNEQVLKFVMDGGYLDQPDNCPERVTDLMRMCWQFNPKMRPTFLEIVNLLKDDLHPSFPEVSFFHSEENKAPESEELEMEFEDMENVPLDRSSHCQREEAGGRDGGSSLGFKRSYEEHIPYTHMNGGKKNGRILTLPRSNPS
Experimental: Enzyme: EGFR wild type, EGFR T790M/L858R, EGFR T790M and INSR were purchased from Life technology (Madison, Wis.), EGFR d746-750/T790M was purchased from Carna Biosciences (Japan).
HTRF Kit was purchased from Cis-Bio International which contained the Eu-labeled TK1 antibody, XL665 and biotin-labeled TK1 polypeptide substrates.
Detecting instrument: Envision (PerkinElmer).
The test compound was diluted 3-fold to obtain 10 doses of which the final concentration was from 300 nM to 0.015 nM.
INSR Enzyme Reaction Mixture System:
0.5 nM INSR, 1 μM biotin-TK1 peptide, 35 μM ATP enzyme buffer, a total of which was 10 μL. The reaction plate was white Proxiplate 384-Plus plate (PerkinElmer) and the mixture was reacted at 23° C. for 60 minutes.
Reaction Detection: 10 μL of detection reagent containing Antibody 2 nM and XL665 62.5 nM was added, and the reagent was incubated at 23° C. for 60 minutes. The plates were read by Envision.
The reading is converted to the suppression rate (%) by the following formula […]/(Max-Min)*100%. IC50 Data was measured by four-parameter curve fitting (Model 205 in XLFITS, IDBS).

EGFR d746-750/T790M = target: T3, EGFR d746-750/T790M (Homo sapiens, UniProt P00533, DEL746-750/T790M); test: EGFR d746-750/T790M enzyme HTRF inhibition assay; type: biochemical; details: 40 μM ATP
T3 construct: purchased Carna Biosciences (Japan)
T3 sequence (P00533 with tags, fused parts or gaps DEL746-750/T790M limits assumed): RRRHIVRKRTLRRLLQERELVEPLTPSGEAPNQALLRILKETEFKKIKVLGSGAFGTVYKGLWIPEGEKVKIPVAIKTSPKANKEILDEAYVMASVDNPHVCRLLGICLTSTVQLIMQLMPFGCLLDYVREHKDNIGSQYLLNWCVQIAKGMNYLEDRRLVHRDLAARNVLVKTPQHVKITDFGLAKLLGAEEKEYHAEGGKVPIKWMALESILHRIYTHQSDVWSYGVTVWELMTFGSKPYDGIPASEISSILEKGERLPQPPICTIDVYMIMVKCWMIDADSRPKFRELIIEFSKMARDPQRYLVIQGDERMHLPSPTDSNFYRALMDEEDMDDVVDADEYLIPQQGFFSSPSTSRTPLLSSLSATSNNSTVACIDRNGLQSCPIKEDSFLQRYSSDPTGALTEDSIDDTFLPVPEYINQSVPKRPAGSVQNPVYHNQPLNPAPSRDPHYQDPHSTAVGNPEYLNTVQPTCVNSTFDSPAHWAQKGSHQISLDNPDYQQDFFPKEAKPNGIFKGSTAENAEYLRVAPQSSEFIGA
How it was run: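 0.025 nM enzyme with 1 μM biotin-TK1 peptide and 40 μM ATP, 60 min at 23° C; compound tested at 10 doses, 300 nM to 0.015 nM final. HTRF read (Eu-anti-TK1 antibody 2 nM, XL665 62.5 nM, 60 min at 23° C); IC50 from four-parameter fit of % inhibition.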

EGFR wild type = target: T4, EGFR wild type (Homo sapiens, UniProt P00533); test: Wild-type EGFR enzyme HTRF inhibition assay; type: biochemical; details: 25 μM ATP, read-out: EGFR WT IC50
T4 construct: purchased Life technology (Madison, Wis.)
T4 sequence (P00533 25-1210): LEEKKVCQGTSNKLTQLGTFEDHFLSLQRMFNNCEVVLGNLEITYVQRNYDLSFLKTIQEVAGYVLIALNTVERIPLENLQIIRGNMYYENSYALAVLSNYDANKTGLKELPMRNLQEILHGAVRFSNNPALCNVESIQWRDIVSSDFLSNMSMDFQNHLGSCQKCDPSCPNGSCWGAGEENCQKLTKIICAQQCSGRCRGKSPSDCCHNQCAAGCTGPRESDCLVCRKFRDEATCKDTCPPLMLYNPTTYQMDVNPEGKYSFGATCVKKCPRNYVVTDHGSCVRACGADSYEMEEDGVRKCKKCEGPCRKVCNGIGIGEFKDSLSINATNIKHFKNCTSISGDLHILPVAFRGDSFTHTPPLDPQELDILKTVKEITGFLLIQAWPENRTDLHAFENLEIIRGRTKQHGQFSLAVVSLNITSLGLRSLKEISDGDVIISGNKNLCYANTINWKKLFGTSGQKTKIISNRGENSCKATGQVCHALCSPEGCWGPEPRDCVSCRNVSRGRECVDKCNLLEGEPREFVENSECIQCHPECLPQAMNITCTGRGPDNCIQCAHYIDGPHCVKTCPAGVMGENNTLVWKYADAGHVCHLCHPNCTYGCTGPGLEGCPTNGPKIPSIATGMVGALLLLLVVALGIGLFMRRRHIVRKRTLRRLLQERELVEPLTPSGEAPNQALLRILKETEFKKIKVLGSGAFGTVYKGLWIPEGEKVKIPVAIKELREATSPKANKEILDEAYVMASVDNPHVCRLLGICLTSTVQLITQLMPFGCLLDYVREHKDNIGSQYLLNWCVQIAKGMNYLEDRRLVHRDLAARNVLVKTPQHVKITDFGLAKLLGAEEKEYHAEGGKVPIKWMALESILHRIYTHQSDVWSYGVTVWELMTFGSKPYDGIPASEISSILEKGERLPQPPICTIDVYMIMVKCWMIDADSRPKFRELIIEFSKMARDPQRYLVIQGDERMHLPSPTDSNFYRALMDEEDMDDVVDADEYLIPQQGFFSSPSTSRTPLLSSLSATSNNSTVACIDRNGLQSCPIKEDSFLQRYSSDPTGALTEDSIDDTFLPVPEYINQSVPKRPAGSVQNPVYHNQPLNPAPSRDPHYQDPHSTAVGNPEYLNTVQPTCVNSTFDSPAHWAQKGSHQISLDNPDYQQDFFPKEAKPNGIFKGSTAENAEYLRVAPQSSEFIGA
How it was run: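 HTRF with 0.05 nM wild-type EGFR, 1 μM biotin-TK1 peptide, 25 μM ATP, 60 min at 23° C; detected with Eu-anti-TK1 antibody 2 nM and XL665 62.5 nM, 60 min at 23° C. Ten 3-fold doses, 300 nM to 0.015 nM final; IC50 by four-parameter fit of % inhibition.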

[1] = tested on: NCI-H1975 cells EGFR L858R/T790M; test: NCI-H1975 cell viability assay (Cell Titer-Glo, 6 days); type: cell-based; details: Homo sapiens, 144 h
How it was run: as §1

[2] = tested on: NCI-H1975 lung cancer patient-derived xenograft (CDX); test: Pharmacodynamics study in vivo, NCI-H1975 xenograft (CDX) model; design: species or system BALB/c nude mice; details: AZD9291 5 mg/kg
Experimental: For example, after 21 days of administration, the tumor volume of the representative compounds 30, 33, 34, 40, 42 and 43 decreased from the beginning of about 149 mm^3 to 3-39 mm^3.
The pharmacological experiments in vivo were performed on BALB/c nude mice that subcutaneously implanted NCI-H1975 lung cancer […] xenograft (CDX).
BALB/c nude mice, female, 6-8 weeks, weighted about 18-22 grams, the mice were kept in a special pathogen-free environment, and in a single ventilation cage (5 mice per cage). The bedding and water of all the cages were disinfected before use. All animals were free to obtain standard certified commercial laboratory diets. A total of 100 mice were purchased from Beijing Vital for research. The tumor tissue (20-30 mm^3) was implanted subcutaneously in the […] of each mouse for tumor growth. The experiment was started when the average tumor volume reached about 150-200 mm^3. The test compound was orally administered daily (compound 30 was administered at 10 mg/kg, compound 33, 34, 40, 42 and 43 were administered at 20 mg/kg and compound AZD9291 was administered continuously for 21 days at 5 mg/kg, the data were shown in Table 3). The tumor volume was measured twice a week with a two-dimensional caliper and the volume was measured in cubic millimeters and calculated by the following formula: V=V=0.5 a×b2, where a and b were the major and minor diameters of the tumor, respectively.

T1 sequence (P00533 25-1210 T790M/L858R): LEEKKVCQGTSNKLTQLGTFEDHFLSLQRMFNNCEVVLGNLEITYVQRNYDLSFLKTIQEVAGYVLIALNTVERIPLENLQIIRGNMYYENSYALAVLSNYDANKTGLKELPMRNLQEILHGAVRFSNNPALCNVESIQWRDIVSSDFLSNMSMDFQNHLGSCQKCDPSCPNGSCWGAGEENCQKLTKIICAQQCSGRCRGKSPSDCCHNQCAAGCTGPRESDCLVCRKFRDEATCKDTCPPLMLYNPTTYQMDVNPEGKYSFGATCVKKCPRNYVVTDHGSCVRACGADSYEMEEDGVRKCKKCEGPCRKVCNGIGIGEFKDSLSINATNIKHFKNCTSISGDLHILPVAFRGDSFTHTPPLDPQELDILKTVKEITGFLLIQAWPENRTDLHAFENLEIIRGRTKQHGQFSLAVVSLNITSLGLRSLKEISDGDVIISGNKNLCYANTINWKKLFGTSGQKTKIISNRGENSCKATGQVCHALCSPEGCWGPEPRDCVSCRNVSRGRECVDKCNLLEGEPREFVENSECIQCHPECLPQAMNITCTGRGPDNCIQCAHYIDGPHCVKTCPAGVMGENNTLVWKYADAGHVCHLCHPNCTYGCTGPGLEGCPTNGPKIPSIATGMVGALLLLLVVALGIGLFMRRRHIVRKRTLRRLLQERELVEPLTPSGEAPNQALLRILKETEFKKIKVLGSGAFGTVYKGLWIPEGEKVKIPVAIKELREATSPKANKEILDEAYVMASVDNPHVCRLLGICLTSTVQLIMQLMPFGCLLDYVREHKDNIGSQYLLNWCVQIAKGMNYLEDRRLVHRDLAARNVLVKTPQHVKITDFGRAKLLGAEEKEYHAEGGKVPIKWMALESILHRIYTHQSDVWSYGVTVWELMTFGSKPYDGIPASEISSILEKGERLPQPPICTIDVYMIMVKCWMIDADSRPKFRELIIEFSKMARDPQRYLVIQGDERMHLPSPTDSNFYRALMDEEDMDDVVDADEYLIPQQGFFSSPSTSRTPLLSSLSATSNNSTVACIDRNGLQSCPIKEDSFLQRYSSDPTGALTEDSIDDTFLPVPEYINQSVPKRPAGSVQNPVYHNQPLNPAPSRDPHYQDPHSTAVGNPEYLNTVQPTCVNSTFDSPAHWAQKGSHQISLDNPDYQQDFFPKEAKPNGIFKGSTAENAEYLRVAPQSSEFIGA

SMILES | IC50 (EGFR T790M/L858R) [nM] | IC50 (A431 cells EGFR WT) [nM] | IC50 (INSR) [nM] | IC50 (EGFR d746-750/T790M) [nM] | IC50 (EGFR wild type) [nM] | IC50 [1] [nM] | A431:NCI-H1975 (ratio) (A431 cells EGFR WT) | Tumor Volume (mm^3) 4 days ([2]; day 4, oral daily: compound 30 10 mg/kg, 33, 34, 40, 42, 43 20 mg/kg) [mm^3] | Tumor Volume (mm^3) 7 days ([2]; day 7, oral daily: compound 30 10 mg/kg, 33, 34, 40, 42, 43 20 mg/kg) [mm^3] | Tumor Volume (mm^3) 11 days ([2]; day 11, oral daily: compound 30 10 mg/kg, 33, 34, 40, 42, 43 20 mg/kg) [mm^3] | Tumor Volume (mm^3) 14 days ([2]; day 14, oral daily: compound 30 10 mg/kg, 33, 34, 40, 42, 43 20 mg/kg) [mm^3] | Tumor Volume (mm^3) 18 days ([2]; day 18, oral daily: compound 30 10 mg/kg, 33, 34, 40, 42, 43 20 mg/kg) [mm^3]
C=CC(=O)Nc1cc(Nc2nccc(-c3c4n(c5cc(F)ccc35)CCOC4)n2)c(OC)cc1N(C)CCN(C)C [Embodiment 38, N-(2-((2-(Dimethylamino)ethyl)(methyl)amino)-5-((4-(7-fluoro-3,4-dihydro-1H-[1,4]oxazino[4,3-a]indol-10-yl)pyrimidin-2-yl)amino)-4-methoxyphenyl)acrylamide] | 0.09 | 317 | 310 | 0.1 | 0.6 | 7 | 45 |  |  |  |  | 
C=CC(=O)Nc1cc(Nc2nccc(-c3c4n(c5ccccc35)CCC4)n2)c(OC)cc1OCCN(C)C [Embodiment 3, N-(5-((4-(2,3-Dihydro-1H-pyrrolo[1,2-a]indol-9-yl)pyrimidin-2-yl)amino)-2-(2-(dimethylamino)ethoxy)-4-methoxyphenyl)acrylamide] | 0.21 | 854 | 886 | 0.19 | 1.58 | 67.2 | 12.7 |  |  |  |  | 
C=CC(=O)Nc1cc(Nc2nccc(-c3c4n(c5ccccc35)CCOC4)n2)c(OC)cc1N(C)CCN(C)CC [Embodiment 18, N-(5-((4-(3,4-Dihydro-1H-[1,4]oxazino[4,3-a]indol-10-yl)pyrimidin-2-yl)amino)-2-((2-(ethyl(methyl)amino)ethyl)(methyl)amino)-4-methoxyphenyl)acrylamide] | 0.2 | 518 | 633 | 0.18 | 1.9 | 7 | 74 |  |  |  |  | 
C=CC(=O)Nc1cc(Nc2ncc(F)c(-c3c4n(c5ccccc35)CCOC4)n2)c(OC)cc1N(C)CCN(C)C [Embodiment 30, N-(5-((4-(3,4-Dihydro-1H-[1,4]oxazino[4,3-a]indol-10-yl)-5-fluoropyrimidin-2-yl)amino)-2-((2-(dimethylamino)ethyl)(methyl)amino)-4-methoxyphenyl)acrylamide] | 0.14 | 823 | 393 | 0.16 | 0.8 | 15 | 55 | 115 | 90 | 48 | 34 | 22
C=CC(=O)Nc1cc(Nc2nccc(-c3c4n(c5ccccc35)CCC4)n2)c(OC)cc1N(C)CCN(C)C [Embodiment 1] | 0.32 | 714 | 404 | 0.39 | 1.49 | 10.4 | 71.4 |  |  |  |  | 
C=CC(=O)Nc1cc(Nc2nccc(-c3c4n(c5ccccc35)CCOC4)n2)c(OC)cc1N(C)CC(C)(C)N(C)C [Embodiment 25, N-(5-((4-(3,4-Dihydro-1H-[1,4]oxazino[4,3-a]indol-10-yl)pyrimidin-2-yl)amino)-2-((2-(dimethylamino)-2-methylpropyl)(methyl)amino)-4-methoxyphenyl)acrylamide] | 0.2 | 248 | 333 | 0.13 | 0.81 | 4 | 62 |  |  |  |  | 

Further lines, with some results ahead:

IC50 (EGFR T790M/L858R) [nM] | IC50 (A431 cells EGFR WT) [nM] | IC50 (INSR) [nM] | IC50 (EGFR d746-750/T790M) [nM] | IC50 (EGFR wild type) [nM] | IC50 [1] [nM] | SMILES | A431:NCI-H1975 (ratio) (A431 cells EGFR WT) | Tumor Volume (mm^3) 4 days ([2]; day 4, oral daily: compound 30 10 mg/kg, 33, 34, 40, 42, 43 20 mg/kg) [mm^3] | Tumor Volume (mm^3) 7 days ([2]; day 7, oral daily: compound 30 10 mg/kg, 33, 34, 40, 42, 43 20 mg/kg) [mm^3] | Tumor Volume (mm^3) 11 days ([2]; day 11, oral daily: compound 30 10 mg/kg, 33, 34, 40, 42, 43 20 mg/kg) [mm^3] | Tumor Volume (mm^3) 14 days ([2]; day 14, oral daily: compound 30 10 mg/kg, 33, 34, 40, 42, 43 20 mg/kg) [mm^3] | Tumor Volume (mm^3) 18 days ([2]; day 18, oral daily: compound 30 10 mg/kg, 33, 34, 40, 42, 43 20 mg/kg) [mm^3]
0.1 | 303 | 440 | 0.1 | 0.35 | 12.5 | C=CC(=O)Nc1cc(Nc2nccc(-c3c4n(c5ccc(F)cc35)CCOC4)n2)c(OC)cc1N(C)CCN(C)C [Embodiment 37, N-(2-((2-(Dimethylamino)ethyl)(methyl)amino)-5-((4-(8-fluoro-3,4-dihydro-1H-[1,4]oxazino[4,3-a]indol-10-yl)pyrimidin-2-yl)amino)-4-methoxyphenyl)acrylamide] | 24 |  |  |  |  | 
0.21 | 777 | 341 | 0.18 | 0.89 | 4.1 | C=CC(=O)Nc1cc(Nc2nccc(-c3c4n(c5ccccc35)CCOC4)n2)c(OC)cc1N(C)CCN(C)C [Embodiment 17, N-(5-((4-(3,4-Dihydro-1H-[1,4]oxazino[4,3-a]indol-10-yl)pyrimidin-2-yl)amino)-2-((2-(dimethylamino)ethyl)(methyl)amino)-4-methoxyphenyl)acrylamide] | 189.5 |  |  |  |  | 
0.21 | 485 | 570 | 0.19 | 1.7 | 5 | C=CC(=O)Nc1cc(Nc2nccc(-c3c4n(c5ccccc35)CCOC4)n2)c(OC)cc1N(C)CCNC [Embodiment 27, N-(5-((4-(3,4-Dihydro-1H-[1,4]oxazino[4,3-a]indol-10-yl)pyrimidin-2-yl)amino)-4-methoxy-2-(methyl(2-(methylamino)ethyl)amino)phenyl)acrylamide] | 97 |  |  |  |  | 
